Measurements published in patent publication US7741245B2, “Method for treating plants or plant parts” (Rohm and Haas Company, priority 2004, dated 2010).

System: Patio variety tomato seedlings
Experiment: Tomato Epinasty Test
Format: in vivo
Details: 1000 ppm v/v OCPO in air of sealed chamber; ethylene 10 ppm v/v injected four hours later; scored sixteen hours later
Method: The biological activity of OCPO was assessed with the Tomato Epinasty Test. Epinasty is downward bending of leaves. The test was performed as follows. Test plants are Patio variety tomato seedlings planted two plants per three inch square plastic pot. Volatile gas treatment entailed placing two pots of Patio variety tomatoes into a polystyrene 4.8 L volume treatment chamber along with one-half (upper or lower section) of a 50×9 mm plastic Petri dish containing a Gelman filter pad. OCPO, dissolved in 1.0 ml acetone, was pipetted onto the filter pad and the chamber was immediately sealed. The amount of OCPO was calculated to give concentration of 1000 ppm v/v of OCPO in the air of the sealed chamber. Four hours later ethylene gas was injected into the sealed chamber in an amount to give concentration of ethylene of 10 ppm v/v final concentration in the sealed chamber. Sixteen hours later the chambers were opened in an exhaust hood, allowed to air, and the plants scored visually for the degree of protection against ethylene-induced epinasty conferred by the experimental compound when compared to untreated controls on a scale of 0 to 10. A rating of 10 means complete protection. A rating of 0 means no protection from the effects of ethylene.

**Q.** Which “protection against ethylene-induced epinasty, visual rating on a scale of 0 to 10 (10 = complete protection, 0 = no protection)” value does the source give for CCCCCCCCc1cc1=O [OCPO, 1-octylcycloprop-1-en-2-one] here?
**A.** 7
